This note sets out measurements from ChEMBL document CHEMBL4130424, “Synthesis and biological effect of chrom-4-one derivatives as functional inhibitors of heat shock protein 27” (2017).

Active and inactive are the calls of the source. The calls are words filed in the database; no cut-off is given here.

In experiment [1] the test system is NCI-H460. Put plainly: Induction of apoptosis in human NCI-H460 cells assessed as late apoptotic cells at 10 uM after 24 hrs by Annexin V/propidium iodide double staining-based FACS analysis (reference value: 3.92%). The class given is functional. On the technique in general: Flow cytometry measures light scatter and fluorescence of single cells or particles in a stream.

The target in experiment [2] is Heat shock protein beta-1 (Homo sapiens) (UniProt P04792). Put plainly: Induction of abnormal HSP27 dimerization in human NCI-H460 cells assessed as potentiation of 17-AAG-induced antiproliferative activity at 10 uM after 24 hrs by EZ-CYTOX cell viability assay. The class given is cell-based.
For experiment [3] the target is unchanged. Put plainly: Induction of abnormal HSP27 dimerization in human NCI-H460 cells assessed as potentiation of 17-AAG-induced apoptosis by measuring late apoptotic cells at 10 uM after 24 hrs by Annexin V/propidium iodide double staining-based FACS analysis (reference value: 7.53%). The class given is cell-based.
The target is the same in experiment [4]. Nature of the experiment: Induction of abnormal HSP27 dimerization in human NCI-H460 cells assessed as potentiation of 17-AAG-induced apoptosis by measuring necrotic cells at 10 uM after 24 hrs by Annexin V/propidium iodide double staining-based FACS analysis (reference value: 1.42%). It counts as cell-based.
The target is the same in experiment [5]. Put plainly: Induction of abnormal HSP27 dimerization in human NCI-H460 cells assessed as potentiation of cisplatin-induced apoptosis by measuring late apoptotic cells at 10 uM after 24 hrs by Annexin V/propidium iodide double staining-based FACS analysis (reference value: 3.74%). It counts as cell-based.
Experiment [6] shares this target. Nature of the experiment: Induction of abnormal HSP27 dimerization in human NCI-H460 cells assessed as potentiation of cisplatin-induced increase in cleaved PARP levels at 10 uM after 24 hrs by Western blot analysis. It counts as cell-based.
The test system of experiment [7] is NCI-H460. Nature of the experiment: Induction of apoptosis in human NCI-H460 cells assessed as late apoptotic cells at 10 uM after 24 hrs by Annexin V/propidium iodide double staining-based FACS analysis (reference value: 3.66%). The class given is functional.
Experiment [8] deals with Heat shock protein beta-1 (Homo sapiens) (UniProt P04792). Nature of the experiment: Induction of abnormal HSP27 dimerization in human NCI-H460 cells assessed as potentiation of cisplatin-induced antiproliferative activity at 10 uM after 24 hrs by EZ-CYTOX cell viability assay. It counts as cell-based.
Experiment [9] concerns NCI-H460. Nature of the experiment: Induction of apoptosis in human NCI-H460 cells assessed as increase in cleaved caspase-7 levels at 10 uM after 12 hrs by Western blot analysis. The class given is functional, cell-based. (In western blotting, separated proteins are transferred to a membrane and probed.)
Experiment [10] addresses Heat shock protein beta-1 (Homo sapiens) (UniProt P04792). Put plainly: Induction of abnormal HSP27 dimerization in human NCI-H460 cells assessed as potentiation of 17-AAG-induced increase in cleaved PARP levels at 10 uM after 24 hrs by Western blot analysis. The class given is cell-based.
Experiment [11] shares this target. Put plainly: Induction of abnormal HSP27 dimerization in human NCI-H460 cells assessed as potentiation of 17-AAG-induced increase in cleaved caspase-7 levels at 10 uM after 24 hrs by Western blot analysis. The class given is cell-based.
For experiment [12] the target is unchanged. Nature of the experiment: Induction of abnormal HSP27 dimerization in human NCI-H460 cells assessed as potentiation of cisplatin-induced apoptosis by measuring early apoptotic cells at 10 uM after 24 hrs by Annexin V/propidium iodide double staining-based FACS analysis (reference value: 7.49%). The class given is cell-based.
The target is the same in experiment [13]. Put plainly: Induction of abnormal HSP27 dimerization in human NCI-H460 cells assessed as potentiation of cisplatin-induced increase in cleaved caspase-7 levels at 10 uM after 24 hrs by Western blot analysis. The class given is cell-based.
Experiment [14] has the same target. Put plainly: Induction of abnormal HSP27 dimerization in human NCI-H460 cells assessed as potentiation of 17-AAG-induced apoptosis by measuring early apoptotic cells at 10 uM after 24 hrs by Annexin V/propidium iodide double staining-based FACS analysis (reference value: 17.86%). It counts as cell-based.
The test system of experiment [15] is NCI-H460. Nature of the experiment: Induction of apoptosis in human NCI-H460 cells assessed as necrotic cells at 10 uM after 24 hrs by Annexin V/propidium iodide double staining-based FACS analysis (reference value: 2.92%). The class given is functional.
For experiment [16], the system named is NCI-H460. Put plainly: Potentiation of 17-AAG-induced antiproliferative activity in HSP27-knockdown human NCI-H460 cells at 10 uM after 24 hrs by EZ-CYTOX cell viability assay. It counts as functional, cell-based.
Experiment [17] concerns NCI-H460. Put plainly: Induction of apoptosis in human NCI-H460 cells assessed as early apoptotic cells at 10 uM after 24 hrs by Annexin V/propidium iodide double staining-based FACS analysis (reference value: 2.83%). It counts as functional.
The subject of experiment [18] is NCI-H460. Put plainly: Induction of apoptosis in human NCI-H460 cells assessed as increase in cleaved PARP levels at 10 uM after 12 hrs by Western blot analysis. It counts as functional, cell-based.
Experiment [19] addresses Heat shock protein beta-1 (Homo sapiens) (UniProt P04792). Put plainly: Induction of abnormal recombinant HSP27 (unknown origin) dimerization after 3 hrs by Western blot analysis.
The test system of experiment [20] is NCI-H460. Put plainly: Induction of apoptosis in human NCI-H460 cells assessed as early apoptotic cells at 10 uM after 24 hrs by Annexin V/propidium iodide double staining-based FACS analysis (reference value: 3.84%). It counts as functional.
Experiment [21] has as its target Heat shock protein beta-1 (Homo sapiens) (UniProt P04792). Nature of the experiment: Induction of abnormal HSP27 dimerization in human NCI-H460 cells at 10 uM after 12 hrs by Western blot analysis. It counts as cell-based.
Experiment [22] concerns NCI-H460. Put plainly: Induction of apoptosis in human NCI-H460 cells assessed as necrotic cells at 10 uM after 24 hrs by Annexin V/propidium iodide double staining-based FACS analysis (reference value: 1.29%). It counts as functional.
The target of experiment [23] is Heat shock protein beta-1 (Homo sapiens) (UniProt P04792). Nature of the experiment: Induction of abnormal HSP27 dimerization in human NCI-H460 cells assessed as potentiation of cisplatin-induced apoptosis by measuring necrotic cells at 10 uM after 24 hrs by Annexin V/propidium iodide double staining-based FACS analysis (reference value: 2.26%). It counts as cell-based.

For experiment [24] the target is unchanged. Put plainly: Induction of abnormal HSP27 dimerization in human NCI-H460 cells at 10 uM co-treated with 17-AAG after 24 hrs by Western blot analysis. The class given is cell-based.
Experiment [25] concerns NCI-H460. Put plainly: Potentiation of 17-AAG-induced apoptosis in human NCI-H460 cells assessed as early apoptotic cells at 10 uM after 24 hrs by Annexin V/propidium iodide double staining-based FACS analysis (reference value: 17.86%). The class given is functional.
Experiment [26] concerns NCI-H460. Put plainly: Potentiation of 17-AAG-induced apoptosis in human NCI-H460 cells assessed as late apoptotic cells at 10 uM after 24 hrs by Annexin V/propidium iodide double staining-based FACS analysis (reference value: 7.53%). The class given is functional.
Experiment [27] has as its system NCI-H460. Nature of the experiment: Potentiation of 17-AAG-induced antiproliferative activity against human NCI-H460 cells at 10 uM after 24 hrs by EZ-CYTOX cell viability assay. It counts as functional, cell-based.
The test system of experiment [28] is NCI-H460. Nature of the experiment: Potentiation of 17-AAG-induced apoptosis in human NCI-H460 cells assessed as necrotic cells at 10 uM after 24 hrs by Annexin V/propidium iodide double staining-based FACS analysis (reference value: 1.42%). It counts as functional.
Experiment [29] has as its system NCI-H460. Nature of the experiment: Potentiation of cisplatin-induced apoptosis in human NCI-H460 cells assessed as late apoptotic cells at 10 uM after 24 hrs by Annexin V/propidium iodide double staining-based FACS analysis (reference value: 3.74%). The class given is functional.
The test system of experiment [30] is NCI-H460. Put plainly: Potentiation of cisplatin-induced apoptosis in human NCI-H460 cells assessed as necrotic cells at 10 uM after 24 hrs by Annexin V/propidium iodide double staining-based FACS analysis (reference value: 2.26%). The class given is functional.
Experiment [31] concerns NCI-H460. Nature of the experiment: Potentiation of cisplatin-induced apoptosis in human NCI-H460 cells assessed as early apoptotic cells at 10 uM after 24 hrs by Annexin V/propidium iodide double staining-based FACS analysis (reference value: 7.49%). The class given is functional.

Chain of Heat shock protein beta-1 (Homo sapiens) (P04792 whole entry): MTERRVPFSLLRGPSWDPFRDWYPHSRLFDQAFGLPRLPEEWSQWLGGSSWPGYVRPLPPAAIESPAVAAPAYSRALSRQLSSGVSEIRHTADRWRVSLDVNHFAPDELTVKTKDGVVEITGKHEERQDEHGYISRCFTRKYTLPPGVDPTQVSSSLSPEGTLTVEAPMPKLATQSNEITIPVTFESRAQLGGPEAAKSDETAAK

In the case of `Cc1cc(=O)c2c(OCC3CS3)cc(OCC3CS3)cc2o1` (configuration not stated), the Activity in the experiment on NCI-H460 [1] came out at 3.53%; in experiment [3] it was 13%; in experiment [4], 5.37%; in experiment [5], 6.44%; in the experiment on NCI-H460 [7] it was 4.5%; in experiment [12], 11.1%. Besides, the Activity was found to be 18% in experiment [14]; 2.67% in the experiment on NCI-H460 [15]; 6.25% in the experiment on NCI-H460 [17]; 3.49% with NCI-H460 [20]; 2.37% with NCI-H460 [22]; 2.91% in [23]. For the same molecule, the result (in [2]; in experiment [6]; in experiment [8]; with NCI-H460 [9]; in [10]; in experiment [11]) was Active. In addition, the outcome (in experiment [13]; in the experiment on NCI-H460 [18]; in experiment [19]; in experiment [21]; in [24]) was Active. Further, the result in the experiment with NCI-H460 [16] was inactive.

Take `O=c1cc(-c2ccccc2)oc2cc(OCC3CS3)cc(OCC3CS3)c12` (configuration not stated): the Activity is given as 10.78% in the experiment on NCI-H460 [25]; 27.48% with NCI-H460 [7]; 31.53% in the experiment on NCI-H460 [26]; 10.12% in the experiment with NCI-H460 [28]; 9.85% in the experiment with NCI-H460 [20]; 11.71% in the experiment on NCI-H460 [22]. Moreover, the outcome (in the experiment with NCI-H460 [9]; in [10]; in experiment [11]; in the experiment with NCI-H460 [27]; with NCI-H460 [16]; in the experiment with NCI-H460 [18]) was Active. Moreover, the result in experiment [19], in experiment [21] and in experiment [24] was Active.

Consider `O=c1cc(-c2ccccc2)oc2cc(OCC3CO3)cc(OCC3CO3)c12` (configuration not stated), for which, in [19], the result was Active.

Take `Cc1cc(=O)c2c(O)cc(OCC3CS3)cc2o1` (configuration not stated): the Activity in the experiment with NCI-H460 [1] came to 5.21%; in [3], 16.5%; in experiment [4], 3.87%; in experiment [5] it was 4.52%; in the experiment on NCI-H460 [7] it was 5.9%; in experiment [12] it was 9.47%. Also, the Activity in experiment [14] is 18.6%; in the experiment on NCI-H460 [15], 1.89%; with NCI-H460 [17], 4.73%; in the experiment on NCI-H460 [20], 3.47%; in the experiment with NCI-H460 [22] it was 1.97%; in [23], 2.11%. Moreover, the outcome (in experiment [2]; in experiment [6]; in experiment [8]; with NCI-H460 [9]; in experiment [10]; in [11]) was Active. In addition, the result (in [13]; in the experiment on NCI-H460 [18]; in experiment [19]; in experiment [21]; in experiment [24]) was Active. For the same molecule, the outcome in the experiment with NCI-H460 [16] was inactive.

On to `O=c1cc(-c2ccccc2)oc2cc(OCC3CS3)cc(O)c12` (configuration not stated), for which, in [19], the result was Active.

Consider `O=c1c2ccccc2oc2cc(OCC3CS3)cc(OCC3CS3)c12` (configuration not stated), for which the Activity with NCI-H460 [25] is given as 21.99%; in the experiment on NCI-H460 [7], 8.13%; with NCI-H460 [26], 20.69%; in the experiment on NCI-H460 [28], 5.18%; in the experiment on NCI-H460 [20], 8.67%; with NCI-H460 [22], 3.38%. The outcome (in the experiment with NCI-H460 [9]; in experiment [10]; in [11]; with NCI-H460 [27]; with NCI-H460 [16]; in the experiment on NCI-H460 [18]) was Active. Besides, the result in experiment [19], in experiment [21] and in experiment [24] was Active.

In the case of `O=c1cc(-c2ccccc2)oc2cc(OCC3CO3)cc(O)c12` (configuration not stated), in [19], the outcome was inactive.

In the case of `COc1cc(OCC2CS2)c2c(=O)c3ccccc3oc2c1` (configuration not stated), the Activity is on record as 4.27% with NCI-H460 [1]; 4.81% in the experiment with NCI-H460 [29]; 6.62% in the experiment with NCI-H460 [25]; 4.04% in the experiment with NCI-H460 [7]; 2.45% in the experiment on NCI-H460 [30]; 6.65% in the experiment with NCI-H460 [26]. In addition, the Activity is listed as 0.68% in the experiment on NCI-H460 [28]; 3.6% with NCI-H460 [15]; 3.41% with NCI-H460 [17]; 7.29% with NCI-H460 [31]; 3.42% in the experiment on NCI-H460 [20]; 0.6% in the experiment on NCI-H460 [22]. Moreover, the result (in experiment [10]; in experiment [11]; in the experiment on NCI-H460 [16]; in [19]) was inactive.
